Results from patent US20030153590A1, “Method of treating alcoholism or alcohol abuse” (OY CONTRAL PHARMA LTD, priority 2001, published 2003).

Experiments:
[1] = In vitro permeation study, HCE cell membranes; conditions: human
[2] = system: HCE cell membranes; experiment: In vitro permeation study, HCE cell membranes; conditions: HCE, Papp × water solubility
[3] = In vitro permeation study, MDCK cell membranes; type: in vitro ADME, canine; conditions: dog
Description: (§1) MDCK cells were seeded onto the coated filters at a concentration of about 100,000 cells/cm^2. The culture medium was both in apical and basolateral chambers during the whole culture period, and the culture medium was changed every day. The cells were confluent within three days. […] The incubator environment was the same as described above.
(§2) MDCK cells were used for the permeation study on the 4th day when the TER value was about 250 Ω×cm^2. HBSS (Gibco, Paisley, Skotlanti) /10 mM HEPES was used a buffer solution. The permeation study was performed as described above. All the permeation studies were performed at 37° C. using a horizontal plate mixer (Heidolph Inkubator 1000 and Titramax 1000; Heidolph Electro GmbH & Co., Kelheim, Germany). After the studies, TER was metered. The TER data were not changed during the permeability studies.
(§3) The apparent permeability coefficients were calculated as:
(§4) Papp=J/(C×S), (Equation 1)
(§5) Cs is the water solubility of nalmefene.

[4] = system: MDCK cell membranes; experiment: In vitro permeation study, MDCK cell membranes; type: in vitro ADME, canine
Description: as §1, §2, §3, §4, §5

[5] = system: subjects with impaired control of alcohol drinking; experiment: Randomized, double-blind, placebo-controlled dose-response study of nalmefene once daily for 16 weeks; type: in vivo, human; conditions: for Spouse or significant other estimate of frequency of intoxication: At least once a week (number of subjects) / Spouse or significant other estimate of frequency of intoxication: At least once a week (share of subjects) / Spouse or significant other estimate of frequency of intoxication: Every day (number of subjects) / Spouse or significant other estimate of frequency of intoxication: Every day (share of subjects) / Spouse or significant other estimate of frequency of intoxication: Never (number of subjects) / Spouse or significant other estimate of frequency of intoxication: Never (share of subjects) / Spouse or significant other estimate of frequency of intoxication: Once or twice (number of subjects) / Spouse or significant other estimate of frequency of intoxication: Once or twice (share of subjects) / Spouse or significant other estimate of frequency of intoxication: Several times a month (number of subjects) / Spouse or significant other estimate of frequency of intoxication: Several times a month (share of subjects): week 16
Description: A randomized, double-blind, placebo-controlled, multicenter, parallel group, dose-response study was conducted comparing placebo and two doses of nalmefene.
The subjects were randomly allocated to receive placebo, 10 mg of nalmefene or 40 mg of nalmefene once daily for 16 weeks. […] During their participation in the study, the subjects were allowed to receive general counseling, but not any psychotherapy or other specific alcoholism treatment, including pharmacotherapy. The study consisted of a screening period (screening and inclusion visits) not exceeding 2 weeks, during which the eligibility of the study subjects were evaluated, and follow-up visits at 1, 3, 6, 9, 12, and 16 weeks after the study medication was started.
The alcohol consumption was assessed with the Time Line Follow Back Method. The primary efficacy variable was the number of Heavy Drinking Days (HDDs) per month (defined as 28 days). A Heavy Drinking Day (HDD) was defined as a day when a male subject consumed 5 or more, or a female subject consumed 4 or more standard drinks. A standard drink contains approximately 12 g of ethanol. Secondary efficacy measures included other drinking variables (number of Drinking Days (DDs), ratio of HDDs to DDs, total consumption, and maximum and average intensity of drinking), Obsessive Compulsive Drinking Scale (OCDS), Alcohol Dependence Scale (ADS) and Drinkers Inventory of Consequences -scale (DrInC), clinical laboratory markers (ALAT, GGT, CDT, and MCV) and collateral reports.
The monthly drinking of the subjects during the 12 weeks prior to the study was determined first to get a baseline. The total alcohol consumption was 25% higher in the FAH+ subject than in the FAH− subject. The number of HDDs and the number of DDs were at a similar level in all subgroups.
The estimate on the subject's frequency of intoxication by subject's spouse or significant other was obtained again at the end of the study. Within the FAH+ subjects, there were more subjects in nalmefene 40 mg groups in categories “never” and “once or twice” than in other groups, and no subjects in the categories “at least once a week” or “every day”.

[6] = cited from earlier work

C=C1CC[C@@]2(O)[C@H]3Cc4ccc(O)c5c4[C@@]2(CCN3CC2CC2)[C@H]1O5 [nalmefene]
Papp A→B at 180 min, 500 μM ([1]; pH 6.5): 7.86 ± 0.29 ×10⁻⁶ cm/s | Papp A→B at 180 min, 500 μM ([1]; pH 7): 12.1 ± 0.79 ×10⁻⁶ cm/s | Papp A→B at 180 min, 500 μM ([1]; pH 7.5): 13.3 ± 0.61 ×10⁻⁶ cm/s | Papp A→B at 180 min, 500 μM ([1]; pH 8): 13.6 ± 1.64 ×10⁻⁶ cm/s | Maximal administration rate Jmax × 10^−6 ± SD ([2]; pH 6.5, n = 4): 879 ± 32 × 10^−6 mg/(cm^2 s) | Maximal administration rate Jmax × 10^−6 ± SD ([2]; pH 7.0, n = 4): 1072 ± 70 × 10^−6 mg/(cm^2 s) | Maximal administration rate Jmax × 10^−6 ± SD ([2]; pH 7.5, n = 4): 423 ± 19 × 10^−6 mg/(cm^2 s) | Maximal administration rate Jmax × 10^−6 ± SD ([2]; pH 8.0, n = 4): 6.0 ± 0.7 × 10^−6 mg/(cm^2 s) | Papp A→B at 180 min, 500 μM ([3]; pH 6.5, n = 4, read-out: Permeability factor (Papp ± SD)): 11.4 ± 0.59 ×10⁻⁶ cm/s | Papp A→B at 180 min, 500 μM ([3]; pH 7.0, n = 4, read-out: Permeability factor (Papp ± SD)): 18.27 ± 0.16 ×10⁻⁶ cm/s | Papp A→B at 180 min, 500 μM ([3]; pH 7.5, n = 4, read-out: Permeability factor (Papp ± SD)): 22.7 ± 1.08 ×10⁻⁶ cm/s | Papp A→B at 180 min, 500 μM ([3]; pH 8.0, n = 4, read-out: Permeability factor (Papp ± SD)): 23.9 ± 2.49 ×10⁻⁶ cm/s | Maximal administration rate Jmax × 10^−6 ± SD ([4]; pH 6.5, n = 4, Papp × water solubility): 1273 ± 66 × 10^−6 mg/(cm^2 s) | Maximal administration rate Jmax × 10^−6 ± SD ([4]; pH 7.0, n = 4, Papp × water solubility): 1618 ± 14 × 10^−6 mg/(cm^2 s) | Maximal administration rate Jmax × 10^−6 ± SD ([4]; pH 7.5, n = 4, Papp × water solubility): 723 ± 34 × 10^−6 mg/(cm^2 s) | Maximal administration rate Jmax × 10^−6 ± SD ([4]; pH 8.0, n = 4, Papp × water solubility): 10.6 ± 1.1 × 10^−6 mg/(cm^2 s) | number of HDDs ([5]; FAH+ subjects, 10 mg once daily): smaller reduction in the early phase of the treatment | total alcohol consumption and number of HDDs ([5]; FAH+ subjects, 10 mg, first month of treatment): positive tendency | Spouse or significant other estimate of frequency of intoxication: At least once a week (number of subjects) ([5]; FAH+ subjects, 10 mg): 4 | Spouse or significant other estimate of frequency of intoxication: At least once a week (share of subjects) ([5]; FAH+ subjects, 10 mg): 21% | Spouse or significant other estimate of frequency of intoxication: Every day (number of subjects) ([5]; FAH+ subjects, 10 mg): 0 | Spouse or significant other estimate of frequency of intoxication: Every day (share of subjects) ([5]; FAH+ subjects, 10 mg): 0% | Spouse or significant other estimate of frequency of intoxication: Never (number of subjects) ([5]; FAH+ subjects, 10 mg): 1 | Spouse or significant other estimate of frequency of intoxication: Never (share of subjects) ([5]; FAH+ subjects, 10 mg): 5% | Spouse or significant other estimate of frequency of intoxication: Once or twice (number of subjects) ([5]; FAH+ subjects, 10 mg): 6 | Spouse or significant other estimate of frequency of intoxication: Once or twice (share of subjects) ([5]; FAH+ subjects, 10 mg): 32% | Spouse or significant other estimate of frequency of intoxication: Several times a month (number of subjects) ([5]; FAH+ subjects, 10 mg): 8 | Spouse or significant other estimate of frequency of intoxication: Several times a month (share of subjects) ([5]; FAH+ subjects, 10 mg): 42% | reduction of mean number of HDDs versus baseline ([5]; FAH+ subjects, 40 mg daily oral, 4th month of treatment): about 60% | ratio of the number of HDDs to DDs ([5]; FAH+ subjects, 40 mg daily, after treatment, baseline 85%): 43% | number of DDs ([5]; FAH+ subjects, 40 mg once daily): clear reduction | mean number of HDDs per month (28 days) ([5]; FAH+ subjects, 40 mg once daily oral, on treatment, baseline 14.5): 6.0 | mean number of drinks (monthly total alcohol consumption) as % of baseline ([5]; FAH+ subjects, 40 mg, 4th month): about 40% | Spouse or significant other estimate of frequency of intoxication: At least once a week (number of subjects) ([5]; FAH+ subjects, 40 mg): 0 | Spouse or significant other estimate of frequency of intoxication: At least once a week (share of subjects) ([5]; FAH+ subjects, 40 mg): 0% | Spouse or significant other estimate of frequency of intoxication: Every day (number of subjects) ([5]; FAH+ subjects, 40 mg): 0 | Spouse or significant other estimate of frequency of intoxication: Every day (share of subjects) ([5]; FAH+ subjects, 40 mg): 0% | Spouse or significant other estimate of frequency of intoxication: Never (number of subjects) ([5]; FAH+ subjects, 40 mg): 3 | Spouse or significant other estimate of frequency of intoxication: Never (share of subjects) ([5]; FAH+ subjects, 40 mg): 14% | Spouse or significant other estimate of frequency of intoxication: Once or twice (number of subjects) ([5]; FAH+ subjects, 40 mg): 9 | Spouse or significant other estimate of frequency of intoxication: Once or twice (share of subjects) ([5]; FAH+ subjects, 40 mg): 41% | Spouse or significant other estimate of frequency of intoxication: Several times a month (number of subjects) ([5]; FAH+ subjects, 40 mg): 14 | Spouse or significant other estimate of frequency of intoxication: Several times a month (share of subjects) ([5]; FAH+ subjects, 40 mg): 45% | mean number of heavy drinking days reduced by ([5]; FAH+ subjects, daily oral 40 mg, fourth month of treatment (as worded)): 40% | treatment effects on alcohol consumption versus placebo ([5]; FAH- subjects): not distinguishable from placebo | Spouse or significant other estimate of frequency of intoxication: At least once a week (number of subjects) ([5]; FAH- subjects, 10 mg): 1 | Spouse or significant other estimate of frequency of intoxication: At least once a week (share of subjects) ([5]; FAH- subjects, 10 mg): 9% | Spouse or significant other estimate of frequency of intoxication: Every day (number of subjects) ([5]; FAH- subjects, 10 mg): 1 | Spouse or significant other estimate of frequency of intoxication: Every day (share of subjects) ([5]; FAH- subjects, 10 mg): 9% | Spouse or significant other estimate of frequency of intoxication: Never (number of subjects) ([5]; FAH- subjects, 10 mg): 1 | Spouse or significant other estimate of frequency of intoxication: Never (share of subjects) ([5]; FAH- subjects, 10 mg): 9% | Spouse or significant other estimate of frequency of intoxication: Once or twice (number of subjects) ([5]; FAH- subjects, 10 mg): 4 | Spouse or significant other estimate of frequency of intoxication: Once or twice (share of subjects) ([5]; FAH- subjects, 10 mg): 36% | Spouse or significant other estimate of frequency of intoxication: Several times a month (number of subjects) ([5]; FAH- subjects, 10 mg): 4 | Spouse or significant other estimate of frequency of intoxication: Several times a month (share of subjects) ([5]; FAH- subjects, 10 mg): 36% | Spouse or significant other estimate of frequency of intoxication: At least once a week (number of subjects) ([5]; FAH- subjects, 40 mg): 1 | Spouse or significant other estimate of frequency of intoxication: At least once a week (share of subjects) ([5]; FAH- subjects, 40 mg): 8% | Spouse or significant other estimate of frequency of intoxication: Every day (number of subjects) ([5]; FAH- subjects, 40 mg): 1 | Spouse or significant other estimate of frequency of intoxication: Every day (share of subjects) ([5]; FAH- subjects, 40 mg): 8% | Spouse or significant other estimate of frequency of intoxication: Never (number of subjects) ([5]; FAH- subjects, 40 mg): 2 | Spouse or significant other estimate of frequency of intoxication: Never (share of subjects) ([5]; FAH- subjects, 40 mg): 15% | Spouse or significant other estimate of frequency of intoxication: Once or twice (number of subjects) ([5]; FAH- subjects, 40 mg): 3 | Spouse or significant other estimate of frequency of intoxication: Once or twice (share of subjects) ([5]; FAH- subjects, 40 mg): 23% | Spouse or significant other estimate of frequency of intoxication: Several times a month (number of subjects) ([5]; FAH- subjects, 40 mg): 5 | Spouse or significant other estimate of frequency of intoxication: Several times a month (share of subjects) ([5]; FAH- subjects, 40 mg): 38% | number of HDDs ([5]; FAH- subjects, nalmefene 10 mg or 40 mg once daily): no clear treatment effects | mean number of drinks (monthly total alcohol consumption) ([5]; FAH- subjects, throughout the study): remained almost unchanged | pKa [6]: 7.63
